# Tests used:
# Assay type in all cases: functional
# Conditions in all cases: read-out: DIZ
# Penicillium citrinum [1] = experiment: Antifungal activity against Penicillium citrinum at 0.06 mol/L after 2 to 4 days by paper disc method
# Escherichia coli [2] = experiment: Antibacterial activity against Escherichia coli at 0.06 mol/L after 12 to 24 hrs by paper disc method
# Aspergillus niger [3] = experiment: Antifungal activity against Aspergillus niger at 0.13 mol/L after 2 to 4 days by paper disc method
# Penicillium citrinum [4] = experiment: Antifungal activity against Penicillium citrinum at 0.03 mol/L after 2 to 4 days by paper disc method
# Staphylococcus aureus [5] = experiment: Antibacterial activity against Staphylococcus aureus at 0.06 mol/L after 12 to 24 hrs by paper disc method
# Aspergillus niger [6] = experiment: Antifungal activity against Aspergillus niger at 0.06 mol/L after 2 to 4 days by paper disc method
# Penicillium citrinum [7] = experiment: Antifungal activity against Penicillium citrinum at 0.25 mol/L after 2 to 4 days by paper disc method
# Aspergillus niger [8] = experiment: Antifungal activity against Aspergillus niger at 0.25 mol/L after 2 to 4 days by paper disc method
# Penicillium citrinum [9] = experiment: Antifungal activity against Penicillium citrinum at 0.13 mol/L after 2 to 4 days by paper disc method
# Aspergillus niger [10] = experiment: Antifungal activity against Aspergillus niger at 0.03 mol/L after 2 to 4 days by paper disc method
# Staphylococcus aureus [11] = experiment: Antibacterial activity against Staphylococcus aureus at 0.13 mol/L after 12 to 24 hrs by paper disc method
# Escherichia coli [12] = experiment: Antibacterial activity against Escherichia coli at 0.25 mol/L after 12 to 24 hrs by paper disc method
# Staphylococcus aureus [13] = experiment: Antibacterial activity against Staphylococcus aureus at 0.25 mol/L after 12 to 24 hrs by paper disc method
# Staphylococcus aureus [14] = experiment: Antibacterial activity against Staphylococcus aureus at 0.03 mol/L after 12 to 24 hrs by paper disc method
# Escherichia coli [15] = experiment: Antibacterial activity against Escherichia coli at 0.13 mol/L after 12 to 24 hrs by paper disc method
# Escherichia coli [16] = experiment: Antibacterial activity against Escherichia coli at 0.03 mol/L after 12 to 24 hrs by paper disc method
SMILES,zone of inhibition at 60000 µM (Penicillium citrinum [1]),zone of inhibition at 60000 µM (Escherichia coli [2]),zone of inhibition at 130000 µM (Aspergillus niger [3]),zone of inhibition at 30000 µM (Penicillium citrinum [4]),zone of inhibition at 60000 µM (Staphylococcus aureus [5]),zone of inhibition at 60000 µM (Aspergillus niger [6]),zone of inhibition at 250000 µM (Penicillium citrinum [7]),zone of inhibition at 250000 µM (Aspergillus niger [8]),zone of inhibition at 130000 µM (Penicillium citrinum [9]),zone of inhibition at 30000 µM (Aspergillus niger [10]),zone of inhibition at 130000 µM (Staphylococcus aureus [11]),zone of inhibition at 250000 µM (Escherichia coli [12]),zone of inhibition at 250000 µM (Staphylococcus aureus [13]),zone of inhibition at 30000 µM (Staphylococcus aureus [14]),zone of inhibition at 130000 µM (Escherichia coli [15]),zone of inhibition at 30000 µM (Escherichia coli [16])
CC(/N=C/C=C/c1ccccc1)C(=O)O (centres undefined),9.3 mm,8 mm,8.3 mm,12.3 mm,8 mm,8 mm,8 mm,9.7 mm,10.3 mm,8 mm,8 mm,11 mm,8 mm,8 mm,8 mm,8 mm
CC(C)[C@H](/N=C/C=C/c1ccccc1)C(=O)O,8 mm,11 mm,12.3 mm,9 mm,8 mm,13 mm,12.5 mm,12.7 mm,9.7 mm,8 mm,8 mm,9 mm,8 mm,8 mm,8 mm,8 mm
O=C(O)C[C@H](/N=C/C=C/c1ccc(Cl)cc1)C(=O)O,25 mm,13 mm,15.7 mm,24.5 mm,8.5 mm,19.3 mm,32.3 mm,29 mm,23.3 mm,14.3 mm,18.3 mm,25.2 mm,30.3 mm,9.2 mm,12 mm,8 mm
O=C(O)[C@H](Cc1ccc(O)cc1)/N=C/C=C/c1ccccc1,11 mm,8 mm,18.7 mm,12.3 mm,8 mm,12.3 mm,12 mm,12 mm,11.5 mm,8 mm,11.5 mm,31.3 mm,14.2 mm,8 mm,19.5 mm,12 mm
CC(C)C[C@H](/N=C/C=C/c1ccc(Cl)cc1)C(=O)O,19.7 mm,10 mm,20.7 mm,16.5 mm,16.8 mm,18.7 mm,28.3 mm,29.3 mm,25.7 mm,18.3 mm,11 mm,17 mm,28.3 mm,8.7 mm,17.8 mm,9.3 mm
COc1ccc(/C=C/C=N/C(C)C(=O)O)cc1 (centres undefined),13.3 mm,10 mm,10.5 mm,9 mm,8 mm,12.7 mm,17.7 mm,15.8 mm,9.8 mm,8 mm,8.7 mm,16.3 mm,12.7 mm,8 mm,8 mm,8 mm
COc1ccc(/C=C/C=N/[C@H](C(=O)O)C(C)C)cc1,12.7 mm,12 mm,13.3 mm,8 mm,8 mm,10.3 mm,14.3 mm,16.7 mm,11.7 mm,9 mm,8 mm,9 mm,9 mm,8 mm,8 mm,8 mm
COc1ccc(/C=C/C=N/[C@@H](CC(C)C)C(=O)O)cc1,10 mm,9.3 mm,16 mm,12 mm,8 mm,10.5 mm,17.7 mm,19 mm,12 mm,9.7 mm,8 mm,13 mm,10.8 mm,9.7 mm,14 mm,8 mm
COc1ccc(/C=C/C=N/[C@@H](CC(=O)O)C(=O)O)cc1,12.8 mm,10 mm,22.5 mm,8 mm,8.3 mm,11.2 mm,34.3 mm,16.3 mm,23.7 mm,8 mm,10.2 mm,9.5 mm,8 mm,8 mm,10 mm,10.3 mm
O=C(O)C[C@H](/N=C/C=C/c1ccccc1)C(=O)O,14.8 mm,12 mm,24 mm,10.3 mm,8 mm,19.3 mm,40.7 mm,29.7 mm,28 mm,12.7 mm,8 mm,25 mm,18 mm,8 mm,17.3 mm,8 mm
CC(C)C[C@H](/N=C/C=C/c1ccccc1)C(=O)O,9.3 mm,8 mm,9.8 mm,8.5 mm,8.2 mm,8 mm,10.5 mm,16.3 mm,9 mm,8 mm,8 mm,10 mm,8 mm,8 mm,8.3 mm,8 mm
CC(/N=C/C=C/c1ccc(Cl)cc1)C(=O)O (centres undefined),24.7 mm,11.5 mm,24.7 mm,17.3 mm,10.5 mm,19.3 mm,30.3 mm,26.7 mm,26.3 mm,13.8 mm,33.5 mm,12.2 mm,33.7 mm,8.7 mm,12.5 mm,12 mm
CC(C)[C@H](/N=C/C=C/c1ccc(Cl)cc1)C(=O)O,19.5 mm,11 mm,24 mm,20.7 mm,13.5 mm,19 mm,33.5 mm,27.3 mm,31 mm,15.7 mm,15.3 mm,20.5 mm,33 mm,11 mm,15.3 mm,12 mm
O=C(O)C/N=C/C=C/c1ccc(Cl)cc1,20.3 mm,21.7 mm,23 mm,16.3 mm,8 mm,21.7 mm,25 mm,23.7 mm,21.7 mm,12 mm,9.7 mm,22.8 mm,22.2 mm,12.3 mm,18.2 mm,19.3 mm

# Source: ChEMBL document CHEMBL3751674, “Synthesis, antimicrobial activity of Schiff base compounds of cinnamaldehyde and amino acids” (2016)
